Results reported in patent publication US9561228B2 (Celgene Avilomics Research, Inc., priority 2013, dated 2017).

Key:
Erk1 = molecular target: T1, Erk1 (Homo sapiens, UniProt P27361); experiment: Protein Mass Modification Assay (intact protein MALDI, 60 min, 10-fold excess of compound); assay type: binding
T1 construct: purchased Millipore 14-439
How it was run: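 Percent covalent modification comes from the intact-protein MALDI centroid mass shift, treated versus control, divided by compound MW. Before analysis, human Erk1 was exposed to compound at 10-fold excess over protein for 60 min at room temperature.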

MEK1 activated ERK1 = molecular target: T2, MEK1 activated ERK1 (Homo sapiens, UniProt P27361); experiment: Omnia continuous-read kinase assay for potency against MEK1 activated ERK1; assay type: biochemical; conditions: MEK1 activated ERK1, ATP at KM; read-out: ERK1 Omnia WT ATP KM IC50
T2 construct: purchased Millipore (Billerica, Mass.) 14-439-K
How it was run: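 Apparent IC50 came from initial reaction slopes (RFU vs time) plotted against log inhibitor with a variable-slope fit. Reactions were started with ERK1 (4 nM final) added to 50 μM ATP, roughly at its appKM, and 10 μM Sox-conjugated ST17 peptide in 20 mM Tris pH 7.5, 5 mM MgCl2. Fluorescence was monitored every 71 seconds.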

[1] = tested on: ERK1/2 phosphorylation of p90RSK in HT29 cells; experiment: pRSK MSD Assay in HT29 cells; assay type: cell-based; conditions: Homo sapiens, HT-29, read-out: ERK1/ERK2 PRSK MSD HT29 EC50
How it was run: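 Phospho-RSK level, read by electrochemiluminescence on RSK-antibody-coated MSD plates with a phospho-RSK/Sulfo-tag detection pair, reports cellular ERK1/2 activity. HT29 cells, kept overnight in 0.1% FBS medium, were exposed to compound for 120 min at 37° C before lysis.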

ERK1/ERK2 = experiment: Measurement of Erk occupancy with biotinylated covalent probe I-299 (HT-29); assay type: cell-based; conditions: HT-29 cells
Method: Measurement of Erk Occupancy with Biotinylated Covalent Probe
This experiment measured occupancy of the ERK1/ERK2 target by compounds according to the invention. This experiment was conducted using the Mesoscale Discovery test kit (Cat. # N45107B). One day before the assay, cells were split and added at 50,000 cells per well to a flat-bottom 96 well plate in 200 μl of growth medium. The next day, the medium was discarded, 100 μl medium containing test compound was added, and the plate was incubated at 37° C. for 120 minutes. The plate was rinsed once with PBS, and 50 μl lysis buffer with test compound was added. The plate was incubated at 4° C. for 30 min, and 30 μl of lysate was transferred to a plate to capture total and phosphor-Erk. Biotinylated probe 1-299 was diluted in lysis buffer and added to each well to a final concentration of 0.2 μM. The plate was incubated for 2 hr under constant shaking at room temperature. The plate was washed 3 times with MSD wash buffer. To detect the biotinylated probe bonding, tagged streptavidin was added (Mesoscale Discovery, Cat. # R32AD-1) at 1 μg/ml, 25 μl/well, followed by a 60 min incubation under shaking. The plate was washed 3 times, 150 μl MSD Read Buffer (Mesoscale Discovery, Cat. R61TX) was added and the plate was read in a plate reader manufactured by MSD. Percent occupancy by test compound at Erk was calculated by comparing the chemiluminescence readings from treated cells as compared to the chemiluminescence readings in untreated controls (which are defined as 100% probe bonding or 0% test compound occupancy). The amount of covalent probe signal divided by the amount of ERK signal for samples with no test compound treatment represents the maximum probe signal (MPS). In samples treated with test compound prior to covalent probe, the ratio of probe signal to ERK signal (the test probe signal, TPS) was reduced by the degree of target occupancy by the test compound which blocks covalent probe binding. The difference between the MPS and the TPS, divided by the MPS gave the target occupancy by the test compound. This ratio was then expressed as a percent occupancy. Results from this assay are provided in Table A below under the column “Occupancy EC50 (nM) HT-29.”

[2] = tested on: HT-29 cells (colorectal adenocarcinoma); experiment: Inhibition of cancer cell proliferation, HT-29 (CellTiterGlo, 72 hours); assay type: cell-based; conditions: Homo sapiens
How it was run: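 Proliferation over 72 h at 37° C was read by CellTiterGlo luminescence, translated to cell counts with a cell-density standard curve (390–50,000 cells). Compound added as 3-fold dilutions from a 5,000 nM two-fold stock to 3000 seeded HT-29 cells; GI50 from percent inhibition relative to untreated wells.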

[3] = tested on: ERK1/2 phosphorylation of p90RSK (pRSK); experiment: Duration of action after washout: p-RSK inhibition at 6 hr; assay type: cell-based; conditions: 6 hr after washout
Method: Measurement of Duration of Action of Test Compounds
One day before the assay, the cells were split and added at 50,000 cells per well in flat-bottom 96 well plate in 200 μl of growth media. The next day, the medium was discarded, 100 μl medium containing test compounds was added, and the plate was incubated at 37° C. for 120 minutes. The medium was discarded, and the cells were rinsed 3 times with PBS followed by addition of 200 μl of fresh grow medium. The plate was returned to a 37° C. incubator, and separate cell lysates were made using MSD lysis buffer after 0.25, 0.5, 1, 2, 4, 6, 8 and 18 or 24 hours. Thereafter, pRSK was measured as described above in the section entitled pRSK MSD Assay.

[4] = tested on: HCT116 cells (colorectal carcinoma); experiment: Inhibition of cancer cell proliferation, HCT116 (CellTiterGlo, 72 hours); assay type: cell-based; conditions: Homo sapiens, HCT-116
Method: Measurement of Inhibition of Cancer Cell Proliferation (HCT116/Colorectal Carcinoma)
The following protocol used a HCT116 cell line, which cell line is a model for colorectal carcinoma. HCT116 cells were split and 3000 cells in 100 μl of growth medium were added per well of a flat-bottom 96-well plate. A two-fold test compound solution in serum-free RPM1640 was made, starting at 5,000 nM. Then, 3-fold serial dilutions were made across the plate from well 1 to well 11. Well 12, the last well in a row on the plate, was left as untreated control. 100 μl compound solutions were then transferred to the wells, so the total volume of media was 200 μl per well. Plates were returned to a 37° C. incubator, and the cells were cultured for 72 hours. To measure cell proliferation after 72 hours, media was discarded from the plates, 50 μl/well of fresh medium was added, and 50 μl CellTiterGlo solution was added (Promega Cat#G7573). The plate was covered with a dark lid and incubated for 10 min. A white sealing tape was applied to the bottom of the plate, and the plate was read in a luminescence plate reader. […] 50 μl CellTiterGlo was added per well, and the plate was read in a luminescence plate reader after 10 min. The reading was plotted vs. cell number to generate a standard curve and the equation of the curve fit. The compound-treated sample luminescence readings were converted to cell numbers using the curve-fit equation. The percent of inhibition, using untreated control as 100% growth, was then calculated. GI50 was then calculated by GraphPad Prism.

[5] = tested on: A375 cells (malignant melanoma); experiment: Inhibition of cancer cell proliferation, A375 (CellTiterGlo, 72 hours); assay type: cell-based; conditions: Homo sapiens, A-375
How it was run: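 GI50 derived from % growth inhibition relative to untreated wells, after luminescence (CellTiterGlo, 10 min) was converted to cell counts using a standard curve. Compound given as 3-fold dilutions from a 2× 5,000 nM stock in serum-free DMEM; 3000 A375 cells/well, 72 h culture at 37 °C.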

[6] = tested on: ERK1/2 phosphorylation of p90RSK in A375 cells; experiment: Detection of total and phosphor-RSK by MSD ELISA (A375); assay type: cell-based; conditions: Homo sapiens, A-375, read-out: ERK1/ERK2 PRSK A375 EC50
How it was run: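 Electrochemiluminescent MSD ELISA: common RSK capture antibody, with pRSK Ser380 or total RSK detection antibodies plus SulfoTag secondaries. Samples were lysates of A375 cells exposed to compound for 2 h at 37° C after overnight culture in 0.1% FBS DMEM.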

T1 sequence (P27361 whole entry): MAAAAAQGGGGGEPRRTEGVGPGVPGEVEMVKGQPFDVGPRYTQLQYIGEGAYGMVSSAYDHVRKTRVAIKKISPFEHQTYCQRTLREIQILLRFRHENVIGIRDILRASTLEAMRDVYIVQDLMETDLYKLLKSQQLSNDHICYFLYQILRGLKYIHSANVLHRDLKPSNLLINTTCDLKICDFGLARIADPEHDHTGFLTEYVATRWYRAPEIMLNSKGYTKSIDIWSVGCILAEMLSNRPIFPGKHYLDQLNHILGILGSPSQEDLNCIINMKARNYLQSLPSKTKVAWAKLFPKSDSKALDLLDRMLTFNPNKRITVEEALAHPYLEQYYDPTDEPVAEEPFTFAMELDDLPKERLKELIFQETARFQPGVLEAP
T2 sequence (P27361 whole entry): as above

Structure (SMILES) | ERK1 Mass Mod (%) (Erk1) | IC50 (MEK1 activated ERK1) | EC50 [1] | EC50 (ERK1/ERK2) | GI50 [2] | p-RSK inhibition at 6 hr (%) [3] | GI50 [4] | GI50 [5] | EC50 [6]
C=CC(=O)Nc1ccccc1Nc1nc(N[C@@H]2CCC[C@H](C(N)=O)C2)ncc1C(F)(F)F (racemic) [Compound I-2, Rac-cis-3-((4-((2-acrylamidophenyl)amino)-5-(trifluoromethyl)pyrimidin-2-yl)amino)cyclohexanecarboxamide] | E (a mass modification of ≧70%) | < 100 nM | < 100 nM | < 100 nM | 101 to 500 nM |  |  |  | 
C=CC(=O)Nc1ccccc1Nc1nc(NC2CCCC(C(N)=O)C2)ncc1Cl (racemic) [Compound I-102] | E (a mass modification of ≧70%) |  | < 100 nM | < 100 nM | 101 to 500 nM |  |  |  | 
C=CC(=O)Nc1ccccc1Nc1nc(N[C@H]2CCCN(C(=O)CO)C2)ncc1C(F)(F)F [Compound I-15, (S)—N-(2-((2-((1-(2-hydroxyacetyl)piperidin-3-yl)amino)-5-(trifluoromethyl)pyrimidin-4-yl)amino)phenyl)acrylamide] |  |  |  |  | < 100 nM | E (a p-RSK inhibition percent of ≧70%) | < 100 nM | < 100 nM | < 100 nM
C=CC(=O)Nc1ccccc1Nc1nc(Nc2cc(C(N)=O)c(F)cc2C)ncc1C(F)(F)F [Compound I-76, 5-((4-((2-Acrylamidophenyl)amino)-5-(trifluoromethyl)pyrimidin-2-yl)amino)-2-fluoro-4-methylbenzamide] |  |  | 501 to 999 nM | < 100 nM | < 100 nM |  |  | 101 to 500 nM | 
C=CC(=O)Nc1ccccc1Nc1nc(Nc2cc(CO)c(F)cc2C)ncc1C(F)(F)F [Compound I-77, N-(2-((2-((4-Fluoro-5-(hydroxymethyl)-2-methylphenyl)amino)-5-(trifluoromethyl)pyrimidin-4-yl)amino)phenyl)acrylamide] |  |  | 101 to 500 nM | < 100 nM | < 100 nM |  | 101 to 500 nM | 101 to 500 nM | 
C=CC(=O)Nc1cc(F)ccc1Nc1nc(Nc2ccc(F)cc2C)ncc1Cl [Compound I-212, N-(2-((5-chloro-2-((4-fluoro-2-methylphenyl)amino)pyrimidin-4-yl)amino)-5-fluorophenyl)acrylamide] | F (a mass modification of 31-69%) |  | < 100 nM | < 100 nM | 101 to 500 nM |  |  |  | 
C=CC(=O)Nc1ccccc1Nc1nc(Nc2cc(C(N)=O)ccc2C)ncc1Cl [Compound I-319, 3-(4-(2-acrylamidophenylamino)-5-chloropyrimidin-2-ylamino)-4-methylbenzamide] |  |  | < 100 nM | < 100 nM | 101 to 500 nM |  |  |  | 
